Key:
[1] = system: HepG2-A16-CD81 hepatocytes; assay: HepG2 cytotoxicity screening (CellTiter-Glo); details: for HepG2 cytotoxicity 12pt dose response: Maximum inhibition (%): 12pt dose response
[2] = HepG2 cytotoxicity screening (CellTiter-Glo); details: human, uninfected HepG2-A16-CD81 (EGFP) hepatocytes
[3] = biological target: recombinant firefly luciferase (Photinus pyralis, UniProt P08659); assay: biochemical; details: dose response; for Emax: maximum inhibition, read-out: rLuc inhibition dose response: Maximum inhibition (%); for IC50: read-out: rLuc inhibition dose response: IC50
Chain of recombinant firefly luciferase (P08659 whole entry): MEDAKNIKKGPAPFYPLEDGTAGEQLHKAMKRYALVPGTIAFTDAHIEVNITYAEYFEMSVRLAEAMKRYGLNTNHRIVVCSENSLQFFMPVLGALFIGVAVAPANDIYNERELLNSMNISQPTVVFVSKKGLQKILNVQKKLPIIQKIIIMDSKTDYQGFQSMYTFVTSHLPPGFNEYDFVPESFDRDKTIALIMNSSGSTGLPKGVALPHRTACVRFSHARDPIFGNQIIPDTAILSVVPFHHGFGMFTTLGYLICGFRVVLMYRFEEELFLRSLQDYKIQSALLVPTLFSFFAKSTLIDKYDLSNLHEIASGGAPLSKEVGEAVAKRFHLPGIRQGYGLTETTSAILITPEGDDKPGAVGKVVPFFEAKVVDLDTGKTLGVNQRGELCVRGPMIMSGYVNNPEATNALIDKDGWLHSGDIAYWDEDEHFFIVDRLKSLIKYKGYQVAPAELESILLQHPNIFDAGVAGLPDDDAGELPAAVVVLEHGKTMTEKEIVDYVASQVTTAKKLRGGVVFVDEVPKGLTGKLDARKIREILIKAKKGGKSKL

[4] = system: P. berghei liver stage (PbLuc); assay: P. berghei luciferase liver stage (PbLuc) assay in HepG2-A16-CD81 hepatocytes; assay type: cell-based, Plasmodium berghei; details: Plasmodium berghei; for IC50: HepG2-A16-CD81, 12pt dose response, read-out: PbLuc 12pt dose response: IC50; for Emax: HepG2-A16-CD81, 48 h, 12pt dose response, maximum inhibition

Row | SMILES | HepG2 cytotoxicity 12pt dose response: Maximum inhibition (%) [1] | IC50 [2] | Emax [3] | IC50 [3] | IC50 [4] | Emax [4] | inhibition at 2 µM [2] | HepG2 Cytotoxicity primary screen (2uM): % Inhibition [1]
1 | Cc1cc(C(=O)N2CCN(c3nc4c(C(C)C)cccc4s3)CC2)on1 [UCSD-0787150] | 21.7% | > 25 µM | 11.6% | > 50 µM | 4 µM | 101% | – | –
2 | CCc1cc(=O)[nH]c(-n2nc(C3CC3)cc2NC(=O)C2CC2)n1 [UCSD-0787226] | 54% | > 25 µM | 8.54% | > 25 µM | 0.35 µM | 92.4% | -1.99% | –
3 | CCc1c(C)nc(-n2nc(C3CC3)cc2NC(C)=O)[nH]c1=O [UCSD-0787229] | 3.74% | > 25 µM | 16.1% | > 50 µM | 0.0826 µM | 97.2% | – | –
4 | O=S(=O)(c1ccc(Cl)s1)N1CCN(Cc2nc(-c3ccco3)cs2)CC1 [UCSD-0787251] | 65.6% | 22 µM | 13.6% | > 25 µM | 11 µM | 93.6% | – | 12.14%
5 | CC(C)(C)NC(=O)N1CCC(Oc2ccc(C(F)(F)F)cn2)CC1 [UCSD-0787817] | 16.5% | > 25 µM | 13% | > 25 µM | 11.4 µM | 93.5% | – | -4.73%
6 | CCOc1ccc(S(=O)(=O)Nc2cnc(OC)nc2OC)cc1 [UCSD-0788088] | 61% | > 25 µM | -1.04% | > 25 µM | 5.14 µM | 71.2% | 4.64% | –
7 | COc1cccc(CN2CCc3nc(C(=O)NCC(C)C)sc3CC2)c1 [UCSD-0790206] | 35.9% | > 25 µM | 32% | > 25 µM | 9.85 µM | – | – | -10.23%
8 | O=C([C@H]1C[C@@H]2CCN(c3cccc(F)c3)C[C@H]2O1)N1CCCC1 [UCSD-0792262] | – | > 25 µM | 28.4% | > 25 µM | 10.3 µM | 93.8% | – | 4.38%
9 | O=C(NCCCN1CCCCC1)c1ccc(-n2ccc3ccccc32)s1 [UCSD-0795001] | 66.1% | 22.1 µM | -4.22% | > 25 µM | 11.6 µM | 116% | – | 0.00%
10 | CCS(=O)(=O)N1CCc2ccc(NC(=O)Nc3cccc(SC)c3)cc21 [UCSD-0795016] | 54% | 3.39 µM | 12.2% | > 25 µM | 1.38 µM | 98.9% | 0% | –
11 | Cc1[nH]/c(=N\C(=O)c2csc(NCC(C)C)n2)sc1C [UCSD-0795190] | 42.7% | > 25 µM | 77% | 9.64 µM | 8.85 µM | 84.4% | 0% | –
12 | CC(=O)Nc1ccc(-n2ccc3nc(N4CCCC4)ncc3c2=O)cc1 [UCSD-0795240] | 8.78% | > 25 µM | -8.22% | > 25 µM | 4.11 µM | 100% | 0% | –
13 | Cc1ccc(N(CC(=O)c2ccc(Br)cc2)C2=NCCCCC2)cc1 [UCSD-0795313] | 28.6% | > 25 µM | 7.66% | > 25 µM | 13.6 µM | 93.4% | – | 0.00%
14 | COCCCNC1N=C(n2nc(C)cc2C)Nc2sc3c(c21)CCCC3 (stereo not drawn) [UCSD-0796603] | -1.93% | > 25 µM | 17.3% | > 25 µM | 4.36 µM | 98.7% | – | 2.66%
15 | CC(=O)Nc1ncc(S(=O)(=O)Nc2ccc3c(c2)OCCO3)s1 [UCSD-0796805] | 4.04% | > 25 µM | 52.2% | > 25 µM | 9.83 µM | 92% | – | -2.36%
16 | CCC1=NC(SCC(=O)c2ccccc2)c2cc(CC)sc2N1 (stereo not drawn) [UCSD-0796974] | 3.82% | > 25 µM | 7.45% | > 25 µM | > 25 µM | 42.1% | 3.26% | –
